Legend:
PKC theta = target: T1, PKC theta (Homo sapiens, UniProt Q04759); test: PKC assay, fluorescence polarization (Example 2), PKC theta; format: biochemical; details: 5 μM ATP
T1 construct: purchased Upstate Biotechnologies, Temecula, CA 14-444
Method: The inhibition of PKC activity was measured by monitoring the production of phosphorylated peptide by fluorescence polarization at different concentrations of the inhibitor. Reactions were carried out in 96-well plate format with a total volume of 20 μL containing 20 mM HEPES, pH 7.4, 5 mM MgCl2, 0.2 mM CaCl2, 1 mM DTT, 0.02% Brij-35, 0.1 mg/mL phosphatidylserine, 0.02 mg/mL dioleoyl-sn-glycerol and 5 μM each of ATP and the peptide substrate. Compounds were first diluted serially in DMSO and then transferred to a solution containing the above concentrations of HEPES, MgCl2, CaCl2, DTT, and Brij-35 to yield 5× compound solutions in 2% DMSO, which was then added to the reaction solution. Reactions were initiated by the addition of PKC at a typical concentration as described in Table VI, and then allowed to incubate at room temperature for 20 min. At the end of this time, a combination of quench (EDTA) and detection (peptide tracer and antibody) reagents was added using the protocol of Invitrogen P2748.

Human primary T cells = test: IL-2 ELISA, Human Primary T Cell, Anti-CD3+CD28+ (Example 3); format: cell-based; details: Homo sapiens, T-cell, 24 h, anti-CD3+CD28 stimulation
How it was run: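 Human primary T cells, 100,000 per well, were pre-incubated with compound in Yssel's medium for 1 h at 37 °C. The counter-assay used 0.5 ng/ml PMA with 0.1 uM ionomycin final.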

T1 sequence (Q04759 whole entry): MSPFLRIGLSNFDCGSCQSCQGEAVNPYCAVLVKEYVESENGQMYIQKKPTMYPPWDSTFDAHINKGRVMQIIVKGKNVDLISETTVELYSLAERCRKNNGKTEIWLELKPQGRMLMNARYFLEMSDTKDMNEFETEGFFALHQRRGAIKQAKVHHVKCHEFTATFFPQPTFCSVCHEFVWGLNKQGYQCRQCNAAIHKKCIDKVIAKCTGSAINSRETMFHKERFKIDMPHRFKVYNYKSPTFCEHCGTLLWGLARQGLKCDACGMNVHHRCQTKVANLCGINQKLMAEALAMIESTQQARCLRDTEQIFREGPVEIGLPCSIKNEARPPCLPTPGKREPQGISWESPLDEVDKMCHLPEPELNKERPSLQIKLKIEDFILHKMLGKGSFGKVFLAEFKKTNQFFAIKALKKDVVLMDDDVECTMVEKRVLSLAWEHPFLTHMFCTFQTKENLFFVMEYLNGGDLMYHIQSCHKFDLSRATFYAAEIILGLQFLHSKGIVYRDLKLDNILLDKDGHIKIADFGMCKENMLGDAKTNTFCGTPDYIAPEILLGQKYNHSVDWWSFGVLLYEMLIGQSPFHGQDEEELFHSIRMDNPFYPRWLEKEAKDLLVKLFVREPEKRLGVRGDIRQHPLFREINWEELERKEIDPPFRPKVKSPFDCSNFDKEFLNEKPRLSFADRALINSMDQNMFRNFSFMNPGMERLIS

| SMILES | IC50 (PKC theta) [nM] | IC50 (Human primary T cells) [nM] |
| --- | --- | --- |
| Cc1ccc(Nc2ncc(F)c(NC3CC(C)(C)N(C)C(C)(C)C3)n2)cc1S(N)(=O)=O [Compound I-11] | 52 | 1570 |
| CN1C(C)(C)CC(Nc2nc(Nc3ccc(-c4ccoc4)c(Cl)c3)ncc2F)CC1(C)C [Compound I-155] | 14.4 | 418 |
| CN1C(C)(C)CC(Nc2nc(Nc3ccc(-c4ccoc4)c(C(F)(F)F)c3)ncc2F)CC1(C)C [Compound I-328] | 45.7 | 288 |
| CN1CCN(c2ccc(Nc3ncc(Cl)c(NC4CC(C)(C)N(C)C(C)(C)C4)n3)cc2C#N)CC1 [Compound I-179] | 1.49 | 92.2 |
| CN1CCN(c2ccc(Nc3ncc(F)c(NC4CC(C)(C)N(C)C(C)(C)C4)n3)cc2C(F)(F)F)CC1 [Compound I-5] | 5 | 86 |
| CN1C(C)(C)CC(Nc2nc(Nc3ccc(N4CCC(F)(F)CC4)c(C(F)(F)F)c3)ncc2F)CC1(C)C [Compound I-245] | 329 | 539 |
| Cc1cc(N2CCN(C)CC2)ncc1Nc1ncc(F)c(NC2CC(C)(C)N(C)C(C)(C)C2)n1 [Compound I-8] | 213 | 5810 |
| CN1C(C)(C)CC(Nc2nc(Nc3ccc(-c4ccncc4)c(F)c3)ncc2F)CC1(C)C [Compound I-115] | 21.9 | 287 |
| CN1C(C)(C)CC(Nc2nc(Nc3ccc(-c4cnn(C)c4)c(Cl)c3)ncc2F)CC1(C)C [Compound I-157] | 3.1 | 242 |
| CC1(C)CC(Nc2nc(Nc3cccc(C#N)c3)ncc2F)CC(C)(C)N1 [Compound I-70] | 38.7 | 517 |
| CN1C(C)(C)CC(Nc2nc(Nc3ccc(N4CCN(S(C)(=O)=O)CC4)c(C(F)(F)F)c3)ncc2F)CC1(C)C [Compound I-244] | 34.1 | 248 |
| CN1C(C)(C)CC(Nc2nc(Nc3ccc(OC(F)(F)F)c(-c4cccnc4)c3)ncc2F)CC1(C)C [Compound I-208] | 52 | 467 |
| Cc1cc(Nc2ncc(F)c(NC3CC(C)(C)N(C)C(C)(C)C3)n2)cnc1N1CCN(C)CC1 [Compound I-7] | 16 | 530 |
| CN1C(C)(C)CC(Nc2nc(Nc3ccc(-c4ccoc4)cc3)ncc2F)CC1(C)C [Compound I-125] | 111 | 892 |
| CN1CCC(Nc2nc(Nc3ccc(N4CCN(C)CC4)c(Cl)c3)ncc2F)CC1 [III-4, N2-[3-Chloro-4-(4-methylpiperazino)]phenyl-5-fluoro-N4-(1-methylpiperidin-4-yl)-2,4-pyrimidinediamine] | 32.4 | 1680 |
| CN1C(C)(C)CC(Nc2nc(Nc3cccc(S(N)(=O)=O)c3)ncc2F)CC1(C)C [Compound I-10] | 70 | 1880 |
| CC1(C)CC(Nc2nc(Nc3ccc4c(c3)oc(=O)n4CC3CC3)ncc2C#N)CC(C)(C)N1 [II-97] | 2.5 | 500 |
| CN1C(C)(C)CC(Nc2nc(Nc3ccc(N4CCOCC4)c(C#N)c3)ncc2F)CC1(C)C [Compound I-198] | 1.94 | 175 |
| Cc1ccc(Nc2ncc(F)c(NC3CC(C)(C)N(C)C(C)(C)C3)n2)cc1Cl [Compound I-332] | 36 | 299 |
| Cc1cc(Nc2ncc(F)c(NC3CC(C)(C)N(C)C(C)(C)C3)n2)ccc1N1CCN(C)CC1 [Compound I-4] | 30 | 254 |
| CN1CCN(c2ccc(Nc3ncc(C(F)(F)F)c(NC4CC(C)(C)N(C)C(C)(C)C4)n3)cc2Cl)CC1 [Compound I-34] | 4 | 123 |
| CN1C(C)(C)CC(Nc2nc(Nc3cccc(OC(F)F)c3)ncc2F)CC1(C)C [Compound I-234] | 13.6 | 222 |
| CCCN1CCN(c2ccc(Nc3ncc(F)c(NC4CC(C)(C)N(C)C(C)(C)C4)n3)cc2Cl)CC1 [Compound I-249] | 13.7 | 136 |
| CN1CCN(c2ccc(Nc3ncc(F)c(NC4CCN(CCO)CC4)n3)cc2C(F)(F)F)CC1 [III-7, 5-Fluoro-N4-[1-(2-hydroxyethyl)piperidin-4-yl]-N2-[4-(4-methylpiperazino)-3-trifluoromethyl]phenyl-2,4-pyrimidinediamine] | 254 | 1140 |
| COc1ccc(Nc2ncc(F)c(NC3CC(C)(C)NC(C)(C)C3)n2)cc1Cl [Compound I-254] | 53.9 | 488 |
| Cc1cc(C)cc(Nc2ncc(F)c(NC3CC(C)(C)N(C)C(C)(C)C3)n2)c1 [Compound I-12] | 22 | 341 |
| CCN1CCN(c2ccc(Nc3ncc(F)c(NC4CC(C)(C)N(C)C(C)(C)C4)n3)cn2)CC1 [Compound I-6] | 180 | 1690 |
| CCN1C(=O)CCc2cc(Nc3ncc(F)c(NC4CC(C)(C)N(C)C(C)(C)C4)n3)ccc21 [II-5] | 37.8 | 561 |

From patent US8993585B2, “Cyclic amine substituted pyrimidinediamines as PKC inhibitors” (Rigel Pharmaceuticals, Inc., priority 2007, dated 2015)
